US7279444B2, “Substituted benzoylpyrazoles” (Bayer CropScience GmbH, priority 1999, dated 2007)
Marks after values point to notes of the source that are not given here.

Experiment: log P by HPLC on reversed-phase column (C 18), acidic range
Format: physicochemical
Settings: not given
Protocol: Temperature: 43° C. […] The log P values given in Table 3 were determined in accordance with EEC Directive 79/831 Annex V.A8 by HPLC (High Performance Liquid Chromatography) on a reversed-phase column (C 18). Temperature: 43° C. […] The log P values given in Tables 4 were determined in accordance with EEC Directive 79/831 Annex V.A8 by HPLC (High Performance Liquid Chromatography) on a reversed-phase column (C 18). Temperature: 43° C.

Structure (SMILES) | logP
CCOc1nn(Cc2ccc(C(=O)c3cnn(CC)c3O)c([N+](=O)[O-])c2OC)c(=O)n1C [Example 59] | logP = 1.99^a)
CCn1ncc(C(=O)c2ccc(Cl)c(Cn3ncn(C)c3=O)c2Cl)c1O [Example 25] | logP = 1.28^a)
CCn1ncc(C(=O)c2ccc(C(F)(F)F)cc2Cn2nc(SC)n(C)c2=O)c1OCc1ccc(C(F)(F)F)cc1 [ID-43] | logP = 3.89^a)
CCN1CCN(Cc2c(Cl)ccc(C(=O)c3c(C)nn(C(C)(C)C)c3O)c2Cl)C1=O [ID-58] | logP = 3.15^a)
CCOc1nn(Cc2cc(C(F)(F)F)ccc2C(=O)c2cnn(CC)c2OS(=O)(=O)c2ccc(C)cc2)c(=O)n1C [ID-9] | logP = 3.82^a)
CCn1ncc(C(=O)c2ccc(Cl)c(CN3CCN(C)C3=O)c2Cl)c1O [ID-1] | logP = 1.64^a)
CCOc1nn(Cc2cc(C(F)(F)F)ccc2C(=O)c2cnn(CC)c2OCc2cccc(Cl)c2)c(=O)n1C [ID-24] | logP = 3.84^a)
COc1nn(Cc2cc(F)ccc2C(=O)c2c(C)nn(C)c2O)c(=O)n1C1CC1 [Example 10] | (IA)logP = 1.50^a)
CCn1ncc(C(=O)c2ccc(C(F)(F)F)cc2Cn2nc(OC)n(C3CC3)c2=O)c1O [Example 7] | (IA)logP = 2.28^a)
CCOc1nn(Cc2cc(F)ccc2C(=O)c2c(C)nn(C)c2O)c(=O)n1C1CC1 [Example 11] | (IA)logP = 1.80^a)
CCn1ncc(C(=O)c2ccc(Cl)cc2-n2nc(C(F)(F)F)n(C)c2=O)c1O [Example 16] | logP = 2.47^a)
CCOc1nn(Cc2cc(C(F)(F)F)ccc2C(=O)c2cnn(CC)c2OCc2cccc(C(F)(F)F)c2)c(=O)n1C [ID-27] | logP = 3.94^a)
CCN1CCN(Cc2c(Cl)ccc(C(=O)c3cnn(C)c3O)c2Cl)C1=O [ID-54] | logP = 1.62^a)
CCn1ncc(C(=O)c2ccc(Cl)c(Cn3nc(OC)n(C)c3=O)c2Cl)c1O [Example 21] | logP = 1.69^a)
CCn1ncc(C(=O)c2ccc(Cl)c(Cn3nc(OC(C)C)n(C4CC4)c3=O)c2Cl)c1O [Example 33] | (IB)logP = 4.64^a)
Cc1nn(Cc2c(Cl)ccc(C(=O)c3cnn(C)c3O)c2Cl)c(=O)n1C [Example 58] | logP = 1.19^a)
COc1nn(Cc2c(Cl)ccc(C(=O)c3c(C)nn(C)c3O)c2Cl)c(=O)n1C [Example 53] | logP = 1.48^a)
Cc1nn(C(C)(C)C)c(O)c1C(=O)c1ccc(Cl)c(Cn2nc(Br)n(C)c2=O)c1Cl [Example 49] | logP = 3.19^a)
CN1CCN(Cc2c(Cl)ccc(C(=O)c3cnn(C)c3O)c2Cl)C1=O [ID-50] | logP = 1.41^a)
CCn1ncc(C(=O)c2ccc(C(F)(F)F)cc2Cn2nc(SC)n(C)c2=O)c1OCc1ccc(Cl)cc1 [ID-39] | logP = 3.78^a)
Cc1nn(C)c(O)c1C(=O)c1ccc(Cl)c(Cn2nc(C)n(C)c2=O)c1Cl [Example 54] | logP = 1.20^a)
CCn1ncc(C(=O)c2ccc(Cl)c(CN3CCCN(C)C3=O)c2Cl)c1O [ID-2] | logP = 1.77^a)
CCn1ncc(C(=O)c2ccc(F)c(Cn3nc(N(C)C)n(C)c3=O)c2Cl)c1O [Example 72] | logP = 1.62^a)
CCn1nc(C)c(C(=O)c2ccc(Cl)c(CN3CCCN(C)C3=O)c2Cl)c1O [ID-5] | logP = 1.72^a)

Structure (SMILES) | logP
CCn1ncc(C(=O)c2ccc(C(F)(F)F)cc2Cn2nc(OC)n(C)c2=O)c1O [Example 66] | logP = 2.27^a)
CCn1ncc(C(=O)c2ccc(C(F)(F)F)cc2Cn2cc(Cl)cc(Cl)c2=O)c1O [ID-8] | logP = 2.75^a)
CCOc1nn(Cc2cc(C(F)(F)F)ccc2C(=O)c2cnn(CC)c2OCc2ccc(C)cc2)c(=O)n1C [ID-18] | logP = 3.79^a)
Cc1nn(C)c(O)c1C(=O)c1ccc(Cl)c(Cn2nc(Br)n(C)c2=O)c1Cl [Example 39] | logP = 1.52^a)
CCSc1nn(Cc2cc(C(F)(F)F)ccc2C(=O)c2cnn(CC)c2O)c(=O)n1C [Example 5] | logP = 2.58^a)
CCn1ncc(C(=O)c2ccc(C(F)(F)F)cc2Cn2nc(SC)n(C)c2=O)c1OC [ID-30] | logP = 2.65^a)
CCn1ncc(C(=O)c2ccc(C(F)(F)F)cc2Cn2nc(COC)n(C)c2=O)c1O [Example 65] | logP =1.98^a)
CCn1ncc(C(=O)c2ccc(Cl)c(Cn3nc(N(C)C)n(C4CC4)c3=O)c2Cl)c1O [Example 37] | (IB)logP = 2.04^a)
C=CCOc1c(C(=O)c2ccc(C(F)(F)F)cc2Cn2nc(OCC)n(C)c2=O)cnn1CC [ID-16] | logP = 2.99^a)
CCOc1nn(Cc2c(Cl)ccc(C(=O)c3c(C)nn(C)c3O)c2Cl)c(=O)n1C [Example 52] | logP = 1.76^a)
CCOc1nn(Cc2cc(C(F)(F)F)ccc2C(=O)c2cnn(CC)c2OCc2ccc(C#N)cc2)c(=O)n1C [ID-20] | logP = 3.12^a)
CN1CCCN(Cc2c(Cl)ccc(C(=O)c3cnn(C)c3O)c2Cl)C1=O [ID-3] | logP = 1.52^a)
CCn1ncc(C(=O)c2ccc(S(C)(=O)=O)cc2Cn2nc(SC)n(C)c2=O)c1O [Example 4] | logP = 1.24^a)
CCOc1nn(Cc2cc(C(F)(F)F)ccc2C(=O)c2cnn(CC)c2OC(C)C)c(=O)n1C [ID-15] | logP = 3.11^a)
CCn1nc(C)c(C(=O)c2ccc(Cl)c(Cn3nc(C)n(C)c3=O)c2Cl)c1O [Example 45] | logP = 1.40^a)
CCn1ncc(C(=O)c2ccccc2-n2nc(C(F)(F)F)n(C)c2=O)c1O [Example 15] | logP = 1.95^a)
CCn1ncc(C(=O)c2ccc(Cl)c(Cn3nc(OC(C)C)n(C)c3=O)c2Cl)c1O [Example 22] | logP = 2.31^a)
CCOc1c(C(=O)c2ccc(C(F)(F)F)cc2Cn2nc(SC)n(C)c2=O)cnn1CC [ID-31] | logP = 2.71^a)
CCOc1nn(Cc2cc(C(F)(F)F)ccc2C(=O)c2cnn(CC)c2OCc2ccc(F)cc2)c(=O)n1C [ID-21] | logP = 3.49^a)
Cc1nn(C)c(O)c1C(=O)c1ccc(F)cc1Cn1nc(N(C)C)n(C)c1=O [Example 9] | logP = 1.32^a)
COc1nn(Cc2c(Cl)ccc(C(=O)c3c(C)nn(C(C)(C)C)c3O)c2Cl)c(=O)n1C [Example 48] | logP = 3.02^a)
CCN1CCN(Cc2c(Cl)ccc(C(=O)c3cnn(CC)c3O)c2Cl)C1=O [ID-56] | logP = 1.88^a)
CCn1ncc(C(=O)c2ccc(F)c(Cn3nc(OC)n(C)c3=O)c2Cl)c1O [Example 71] | logP = 1.55^a)
CCn1ncc(C(=O)c2ccc(C(F)(F)F)cc2Cn2nc(SC)n(C)c2=O)c1OS(=O)(=O)c1ccc(C)cc1 [ID-10] | logP = 3.73^a)

More lines, now with the values ahead:

logP | Structure (SMILES)
logP = 3.23^a) | CCOC(=O)c1ccc(Cl)cc1Cn1nc(OCC)n(C2CC2)c1=O [IV-42]
logP = 1.53^a) | COC(=O)c1ccc(S(C)(=O)=O)cc1Cn1nc(SC)n(C)c1=O [IV-114]
logP = 2.89^a) | CCOC(=O)c1ccc(F)cc1Cn1nc(OCC)n(C2CC2)c1=O [IV-98]
logP = 2.80^a) | CCOC(=O)c1ccc(Br)cc1Cn1nc(Br)n(C)c1=O [IV-75]
logP = 3.91^a) | CCCOC(=O)c1ccc(C(F)(F)F)cc1Cn1nc(OCC)n(C2CC2)c1=O [IV-50]
logP = 3.31^a) | CCOC(=O)c1ccc(Br)cc1Cn1nc(OCC(F)(F)F)n(C)c1=O [IV-67]
logP = 2.16^a) | COC(=O)c1ccc(Cl)c(Cn2nc(C3CC3)n(C)c2=O)c1Cl [IV-11]
logP = 2.21^a) | CCOC(=O)c1ccc(F)cc1Cn1nc(N(C)C)n(C)c1=O [IV-94]
logP = 2.04^a) | COC(=O)c1ccc(Cl)c(Cn2nc(OC)n(C)c2=O)c1Cl [IV-6]
logP = 1.86^a) | COC(=O)c1ccc(Cl)c(Cn2nc3n(c2=O)CCCC3)c1Cl [IV-14]
logP = 1.98^a) | COC(=O)c1ccc(Cl)c(CN2CCN(C)C2=O)c1Cl [IV-23]
logP = 3.51^a) | CCOC(=O)c1ccc(C(F)(F)F)cc1Cn1nc(OC(C)C)n(C)c1=O [IV-70]
logP = 2.60^a) | CCOC(=O)c1ccc(C(F)(F)F)cc1Cn1nc(COC)n(C)c1=O [IV-78]
logP = 2.05^a) | CCOC(=O)c1ccc(F)cc1Cn1nc(COC)n(C)c1=O [IV-96]
logP = 2.72^a) | COC(=O)c1ccc(Cl)c(Cn2nc(OCC(F)(F)F)n(C)c2=O)c1Cl [IV-8]
logP = 2.44^a) | CCOC(=O)c1ccc(Br)cc1CN1C(=O)CCC1=O [IV-60]
logP = 3.31^a) | CCOC(=O)c1ccc(Cl)cc1Cn1nc(C(F)(F)F)n(C)c1=O [IV-43]
logP = 3.14^a) | CCOC(=O)c1ccc(Cl)cc1Cn1nc(CC)n(OCC)c1=O [IV-44]
logP = 2.36^a) | CCOC(=O)c1ccc(Br)cc1CN1CCOC1=O [IV-72]
logP = 2.96^a) | CCCOc1nn(Cc2cc(F)ccc2C(=O)OCC)c(=O)n1C [IV-95]
logP = 2.36^a) | COC(=O)c1ccc(Cl)c(Cn2nc(OC)n(C3CC3)c2=O)c1Cl [IV-15]
logP = 2.58^a) | CCOn1c(CC)nn(Cc2c(Cl)ccc(C(=O)OC)c2Cl)c1=O [IV-22]
logP = 3.40^a) | CCOC(=O)c1ccc(Br)cc1Cn1nc(C(F)(F)F)n(C)c1=O [IV-35]
logP = 2.88^a) | CCOC(=O)c1ccc(Br)cc1Cn1nc(C)oc1=O [IV-73]
logP = 3.02^a) | CCOC(=O)c1ccc(Br)c(Cn2nc(C3CC3)n(C3CC3)c2=O)c1 [IV-41]
logP = 2.60^a) | CCOC(=O)c1ccc(Br)cc1Cn1nc(N(C)C)n(C)c1=O [IV-82]
logP = 2.96^a) | CCOC(=O)c1ccc(C(F)(F)F)cc1Cn1nc(Br)n(C)c1=O [IV-119]
logP = 1.97^a) | COC(=O)c1ccc(Cl)c(Cn2nc(C)n(C3CC3)c2=O)c1Cl [IV-20]

Same assay, conditions: reversed-phase HPLC column (C 18); pH=2

chromatographic logP | Structure (SMILES)
2.63 | CCn1ncc(C(=O)c2ccc(-n3nc(C(F)(F)F)n(C)c3=O)cc2Cl)c1O [Example 1, 4-methyl-5-trifluoromethyl-2-[3-chloro-4-(1-ethyl-5-hydroxy-pyrazol-4-yl-carbonyl)-phenyl]-2,4-dihydro-3H-1,2,4-triazol-3-one]
